Experiments:
[1] = tested on: K-562 human chronic myelogenous leukemia (CML) cells; assay: Alamar Blue (AB) cell proliferation assay, K-562; type: cell-based; settings: K562, 96 h, K-562 cells, four days with compound
Experimental: (§1) A representative cell-proliferation assay protocol using Alamar Blue dye (stored at 4° C., use 20 ul per well) is described hereafter.
(§2) 96-well Plate Setup and Compound Treatment • a. Split and trypsinize cells. • b. Count cells using hemocytometer. • c. Plate 4,000-5,000 cells per well in 100 μl of medium and seed into a 96-well plate according to the following plate layout. Add cell culture medium only to wells B10 to B12. Wells B1 to B9 have cells but no compound added.
(§3) • d. Add 100 μl of 2× drug dilution to each well in a concentration shown in the plate layout above. At the same time, add 100 μl of media into the control wells (wells B10 to B12). Total volume is 200 μl/well. • e. Incubate four (4) days at 37° C., 5% CO2 in a humidified incubator. • f. Add 20 μl Alamar Blue reagent to each well. • g. Incubate for four (4) hours at 37° C., 5% CO2 in a humidified incubator. • h. Record fluorescence at an excitation wavelength of 544 nm and emission wavelength of 590 nm using a microplate reader.
(§4) In the assays, cells are cultured with a test compound for approximately four days, the dye is then added to the cells and fluorescence of […] dye is detected after approximately four hours. Different types of cells can be utilized in the assays (e.g., HCT-116 human colorectal carcinoma cells, PC-3 human prostatic cancer cells, MDA-MB231 human breast cancer cells, K-562 human chronic myelogenous leukemia (CML) cells, MiaPaca human pancreatic carcinoma cells, MV-4 human acute myeloid leukemia cells, and BxPC3 human pancreatic adenocarcinoma cells).

recombinant PIM-1 = recombinant PIM-1 (Homo sapiens, UniProt P11309); assay: PIM-1 kinase assay, 33P-ATP filter plate; type: biochemical; settings: recombinant PIM-1, 15 uM ATP; read-out: PIM1: IC50
recombinant PIM-1, sequence (P11309 whole entry): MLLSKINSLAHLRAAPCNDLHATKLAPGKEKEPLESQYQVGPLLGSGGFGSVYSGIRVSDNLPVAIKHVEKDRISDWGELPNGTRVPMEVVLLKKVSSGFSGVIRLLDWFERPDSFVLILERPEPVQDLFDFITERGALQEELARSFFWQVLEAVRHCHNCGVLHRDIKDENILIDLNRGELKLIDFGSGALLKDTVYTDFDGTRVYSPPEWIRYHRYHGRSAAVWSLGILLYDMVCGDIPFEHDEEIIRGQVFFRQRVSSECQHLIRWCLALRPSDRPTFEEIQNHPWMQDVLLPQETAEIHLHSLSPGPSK
Experimental: The following procedure was used to assay the PIM-1 kinase activity of compounds of the invention. Other methods for assaying PIM-1 and other PIM kinases, as well as methods to assay for activity against the various kinases in FIG. 1, are known in the art.
In a final reaction volume of 50 ul, recombinant PIM-1 (1 ng) was incubated with 12 mM MOPS pH 7.0, 0.4 mM EDTA, glycerol 1%, brij 35 0.002%, 2- mercaptoethanol 0.02%, BSA 0.2 mg/ml, 100 uM KKRNRTLTK SEQ ID NO.: 5, 10 mM MgAcetate, 15 uM ATP, [γ-^33P-ATP] (specific activity approx. […]), DMSO 4% and test inhibitor compound at the required concentration. The reaction was initiated by the addition of the Magnesium ATP mixture. After 40 min incubation at 23° C., the reactions were quenched by the addition of 100 ul 0.75% Phosphoric acid, and the labeled peptide collected by filtration through a phosphocellulose filter plate. The plate was washed 4 times with 0.075% phosphoric acid (100 ul per well) and then, after the addition of scintillation fluid (20 ul per well), the counts were measured by a scintillation counter.

[2] = tested on: PC-3 human prostatic cancer cells; assay: Alamar Blue (AB) cell proliferation assay, PC3; type: cell-based; settings: PC-3, 96 h, four days with compound
Experimental: as §1, §2, §3, §4

recombinant human CK2 = molecular target: T1, recombinant human CK2 (Homo sapiens, UniProt P68400); assay: CK2 assay, cell-free, 33P-ATP filter plate; type: biochemical
T1 construct: purchased Upstate
T1 sequence (P68400 whole entry): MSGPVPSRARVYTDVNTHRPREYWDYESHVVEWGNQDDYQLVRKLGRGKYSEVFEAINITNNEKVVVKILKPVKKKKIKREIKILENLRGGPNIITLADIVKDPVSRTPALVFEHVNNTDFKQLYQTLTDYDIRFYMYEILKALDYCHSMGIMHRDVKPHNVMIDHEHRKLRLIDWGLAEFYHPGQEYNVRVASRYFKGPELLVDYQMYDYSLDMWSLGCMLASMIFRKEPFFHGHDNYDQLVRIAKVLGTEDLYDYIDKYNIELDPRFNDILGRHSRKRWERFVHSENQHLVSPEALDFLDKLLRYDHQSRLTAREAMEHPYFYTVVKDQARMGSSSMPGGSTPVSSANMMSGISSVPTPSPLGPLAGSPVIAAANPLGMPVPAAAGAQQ
T1 sequence (P67870 whole entry partner): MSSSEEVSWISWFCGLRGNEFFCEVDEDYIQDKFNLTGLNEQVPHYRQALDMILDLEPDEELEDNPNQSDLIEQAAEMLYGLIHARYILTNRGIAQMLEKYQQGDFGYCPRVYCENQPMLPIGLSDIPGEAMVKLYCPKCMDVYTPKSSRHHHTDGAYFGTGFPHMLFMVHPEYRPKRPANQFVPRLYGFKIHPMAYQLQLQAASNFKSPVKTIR
Experimental: Modulatory activity of compounds described herein was assessed in vitro in cell-free CK2 assays by the following method.
Test compounds in aqueous solution were added at a volume of 10 microliters, to a reaction mixture comprising 10 microliters Assay Dilution Buffer (ADB; 20 mM MOPS, pH 7.2, 25 mM beta-glycerolphosphate, 5 mM EGTA, 1 mM sodium orthovanadate and 1 mM dithiothreitol), 10 microliters of substrate peptide (RRRDDDSDDD SEQ ID NO.: 4, dissolved in ADB at a concentration of 1 mM), 10 microliters of recombinant human CK2 (25 ng dissolved in ADB; Upstate). Reactions were initiated by the addition of 10 microliters of ATP Solution (90% 75 mM MgCl2, 75 micromolar ATP dissolved in ADB; 10% [γ-^33P]ATP (stock 1 mCi/100 μl; 3000 Ci/mmol (Perkin Elmer) and maintained for 10 minutes at 30 degrees C. The reactions were quenched with 100 microliters of 0.75% phosphoric acid, then transferred to and filtered through a phosphocellulose filter plate (Millipore). After washing each well 5 times with 0.75% phosphoric acid, the plate was dried under vacuum for 5 min and, following the addition of 15 ul of scintillation fluid to each well, the residual radioactivity was measured using a Wallac luminescence counter.

[3] = tested on: MV-4 human acute myeloid leukemia cells; assay: Alamar Blue (AB) cell proliferation assay, MV-4-11; type: cell-based; settings: MV4-11, 96 h, MV-4-11 cells, four days with compound
Experimental: as §1, §2, §3, §4

[4] = tested on: MDA-MB231 human breast cancer cells; assay: Alamar Blue (AB) cell proliferation assay, MDAMB231; type: cell-based; settings: MDA-MB-231, 96 h, four days with compound
Experimental: as §1, §2, §3, §4

[5] = tested on: MiaPaca human pancreatic carcinoma cells; assay: Alamar Blue (AB) cell proliferation assay, MiaPaCa; type: cell-based; settings: MIA PaCa-2, 96 h, four days with compound
Experimental: as §1, §2, §3, §4

P21_BxPC3 = P21_BxPC3 cellular assay; type: cell-based; settings: Homo sapiens, BXPC-3; BxPC3 cells
P21_MDAMB231 = P21_MDAMB231 cellular assay; type: cell-based; settings: Homo sapiens, MDA-MB-231; MDAMB231 cells
recombinant human PIM2 = recombinant human PIM2 (Homo sapiens, UniProt Q9P1W9); assay: PIM-2 kinase assay, 33P-ATP filter plate; type: biochemical; settings: PIM2, 5 μM ATP; read-out: PIM2 IC50 (printed in the PIM1: IC50 (μM) column)
recombinant human PIM2, sequence (Q9P1W9 whole entry): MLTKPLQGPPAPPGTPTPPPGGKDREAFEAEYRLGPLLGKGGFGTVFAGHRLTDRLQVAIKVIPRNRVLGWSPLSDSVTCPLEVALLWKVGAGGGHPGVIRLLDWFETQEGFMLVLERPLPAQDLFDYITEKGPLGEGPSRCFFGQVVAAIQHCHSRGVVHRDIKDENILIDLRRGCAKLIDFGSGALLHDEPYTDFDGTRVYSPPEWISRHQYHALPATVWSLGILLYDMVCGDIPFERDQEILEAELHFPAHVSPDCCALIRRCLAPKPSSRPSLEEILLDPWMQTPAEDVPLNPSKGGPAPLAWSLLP
Experimental: Test compounds dissolved and diluted in DMSO (2 μl) were added to a reaction mixture comprising 10 μl of 5× Reaction Buffer (40 mM MOPS pH 7.0, 5 mM EDTA), 10 μl of recombinant human PIM2 solution (4 ng PIM-2 dissolved in dilution buffer (20 mM MOPS pH 7.0; EDTA 1 mM; 5% Glycerol; 0.01% Brij 35; […]; […] 2-mercaptoethanol; 1 mg/ml BSA)) and 8 ul of water. Reactions were initiated by the addition of 10 ul of ATP Solution ([…] (15 mM MgCl2; 75 uM ATP) 1% ([γ-33P]ATP: Stock 1 mCi/100 μl; 3000 Ci/mmol (Perkin Elmer)) and 10 ul of substrate peptide solution (RSRSSYPAGT SEQ ID NO.: 6, dissolved in water at a concentration of 1 mM), Reactions were maintained for 10 min at 30° C. The reactions were quenched with 100 ul of 0.75% Phosphoric acid, then transferred to and filtered through a Phosphocellulose filter plate (Millipore, MSPH-N6B-50). After washing each well 4 times with 0.75% Phosphoric acid, scintillation fluid (20 uL) was added to each well and the residual radioactivity was measured using a Wallac luminescence counter.

Compound	IC50 (recombinant PIM-1)	IC50 [2]	IC50 (recombinant human CK2)	also measured
COC(=O)c1cccc(-c2ccn3ncc(/C=C4/SC(=S)NC4=O)c3n2)c1	21 nM	3910 nM	13 nM	IC50 [1]: > 10000 nM; IC50 [3]: 11 nM; IC50 [4]: 8660 nM; IC50 [5]: > 10000 nM
COC(=O)c1cccc(-c2ccn3ncc(/C=C4/SC(=O)NC4=O)c3n2)c1	91 nM	> 30000 nM	80 nM	IC50 [1]: 51 nM; IC50 (P21_BxPC3): 5680 nM; IC50 (P21_MDAMB231): 3160 nM; IC50 [4]: > 10000 nM; IC50 [5]: > 10000 nM
O=C1NC(=O)/C(=C\c2cnn3ccc(-c4cccc(C(=O)O)c4)nc23)S1	688 nM	> 30000 nM	9 nM	IC50 [1]: > 10000 nM; IC50 [3]: > 1000 nM; IC50 [4]: > 10000 nM; IC50 [5]: > 10000 nM
O=C1NC(=S)S/C1=C/c1cnn2ccc(Nc3cccc(Cl)c3)nc12	18 nM	842 nM	6 nM	IC50 [1]: 153 nM; IC50 (P21_BxPC3): 2660 nM; IC50 [3]: > 30 nM; IC50 (P21_MDAMB231): 300 nM; IC50 [4]: > 10000 nM; IC50 [5]: > 10000 nM
O=C1NC(=O)/C(=C\c2cnn3ccc(Nc4cccc(Cl)c4)nc23)N1	427 nM	143 nM	9 nM	IC50 [1]: 153 nM; IC50 (P21_BxPC3): 540 nM; IC50 [3]: > 30 nM; IC50 (P21_MDAMB231): 100 nM; IC50 [4]: 768 nM; IC50 [5]: 108 nM
O=C1NC(=O)/C(=C\c2cnn3ccc(Nc4cccc(Cl)c4)nc23)S1	52 nM	3040 nM	3 nM	IC50 [1]: 132 nM; IC50 (P21_BxPC3): 450 nM; IC50 [3]: 271 nM; IC50 (P21_MDAMB231): 680 nM; IC50 [4]: 110 nM; IC50 [5]: 285 nM
Cc1nccn1-c1cccc(Nc2ccn3ncc(/C=C4\SC(=O)NC4=O)c3n2)c1	4 nM		22 nM	IC50 [1]: > 10000 nM; IC50 [3]: 5380 nM; IC50 [4]: > 10000 nM; IC50 [5]: > 10000 nM
CC(C)(C)c1cccc(Nc2ccn3ncc(/C=C4/NC(=O)NC4=O)c3n2)c1	890 nM		210 nM	
CC(C)(C)c1cccc(Nc2ccn3ncc(/C=C4/SC(=O)NC4=O)c3n2)c1	107 nM		79 nM	
Nc1ccn2ncc(/C=C3\NC(=O)NC3=O)c2n1	158 nM		> 5000 nM	
CN1CCN(c2ccc(Nc3ccn4ncc(/C=C5/NC(=O)NC5=O)c4n3)cc2)CC1	537 nM		57 nM	
O=C1NC(=O)/C(=C\c2cnn3ccc(Nc4cccc(Cn5ccnc5)c4)nc23)N1	61 nM		120 nM	
O=C1NC(=O)/C(=C/c2cnn3ccc(N4CCCCC4)nc23)N1	431 nM		145 nM	
CN1C(=O)NC(=O)/C1=C/c1cnn2ccc(Nc3cccc(Cl)c3)nc12	239 nM		375 nM	
CCN(CC)Cc1cccc(Nc2ccn3ncc(/C=C4\NC(=O)NC4=O)c3n2)c1	373 nM		460 nM	
CN1CCCN(c2ccn3ncc(/C=C4\NC(=O)NC4=O)c3n2)CC1	3530 nM		1970 nM	

Compound	IC50 (recombinant PIM-1)	IC50 [2]	IC50 (recombinant human CK2)	also measured
CN1CCCN(c2ccn3ncc(/C=C4\SC(=O)NC4=O)c3n2)CC1	126 nM		130 nM	
CN1CCN(c2cccc(Nc3ccn4ncc(/C=C5\NC(=O)NC5=O)c4n3)c2)CC1	518 nM		247 nM	
O=C1NC(=O)/C(=C/c2cnn3ccc(Nc4cccc(OCCN5CCOCC5)c4)nc23)N1	1250 nM		303 nM	
CC(C)Oc1cccc(Nc2ccn3ncc(/C=C4\NC(=O)NC4=O)c3n2)c1	1040 nM	9710 nM	23 nM	
CC(C)CNc1ccn2ncc(/C=C3\NC(=O)NC3=O)c2n1	346 nM	6550 nM	35 nM	
CN(C)CCOc1ccc(Nc2ccn3ncc(/C=C4\NC(=O)NC4=O)c3n2)cc1	431 nM		58 nM	
CC(C)Nc1ccn2ncc(/C=C3\NC(=O)NC3=O)c2n1	1570 nM		574 nM	
O=C1NC(=O)/C(=C/c2cnn3ccc(NCCF)nc23)N1	2380 nM		2150 nM	
O=C1NC(=S)S/C1=C\c1cnn2ccc(-c3ccccc3F)nc12	25 nM	> 10000 nM	15 nM	
O=C1NC(=O)/C(=C/c2cnn3ccc(-c4ccccc4F)nc23)S1	240 nM	> 10000 nM	41 nM	
O=C1NC(=O)/C(=C/c2cnn3ccc(-c4ccccc4F)nc23)N1	3010 nM		179 nM	
O=C1NC(=O)/C(=C/c2cnn3ccc(Nc4ccc(Cl)cc4)nc23)N1	194 nM		20 nM	
O=C1NC(=O)/C(=C/c2cnn3ccc(Nc4ccc(Cl)cc4)nc23)S1			7 nM	
O=C1NC(=O)/C(=C/c2cnn3ccc(-c4ccc(C(=O)NCC5CC5)s4)nc23)N1			< 100 nM	IC50 (recombinant human PIM2): 0.58 µM
CCOCCNC(=O)c1ccc(-c2ccn3ncc(/C=C4\NC(=O)NC4=O)c3n2)s1			< 100 nM	IC50 (recombinant human PIM2): 1.06 µM
CC(O)CNC(=O)c1ccc(-c2ccn3ncc(/C=C4\NC(=O)NC4=O)c3n2)s1 (stereo not drawn)			< 100 nM	IC50 (recombinant human PIM2): 0.54 µM
